Results as given in article PMC9225712, “Rational design of biodegradable sulphonamide candidates treating septicaemia by synergistic dual inhibition of COX-2/PGE2 axis and DHPS enzyme” (Journal of Enzyme Inhibition and Medicinal Chemistry, 2022).
Marks after values point to notes of the source that are not given here.

Key:
[1] = test system: Staphylococcus aureus (RCMB 0100183); assay: Inhibition zone, agar cup diffusion; conditions: RCMB0100183, 24 h, read-out: inhibition zones (IZ) S. aureus
[2] = test system: carrageenan-induced paw edoema; assay: Carrageenan-induced paw edoema in mice; conditions: for ED50: Mus musculus, 8 h, read-out: ED50 (95% confidence level); for Thickness of edoema 0h / percentage anti-inflammatory activity (AI%) 2h / Thickness of edoema 2h / percentage anti-inflammatory activity (AI%) 4h / Thickness of edoema 4h / percentage anti-inflammatory activity (AI%) 6h / Thickness of edoema 6h / Thickness of edoema 8h: mice, po 10 µmol/kg b.wt.; for Thickness of edoema 0h: 0 h (before carrageenan); for Thickness of edoema 0h / Thickness of edoema 2h / Thickness of edoema 4h / Thickness of edoema 6h / Thickness of edoema 8h: Mean ± SEM, n = 5; for Thickness of edoema 2h: 2 h after carrageenan; for Thickness of edoema 4h: 4 h after carrageenan; for Thickness of edoema 6h: 6 h after carrageenan; for Thickness of edoema 8h: 8 h after carrageenan
[3] = test system: Salmonella typhi (RCMB 0100104); assay: Inhibition zone, agar cup diffusion; assay type: cell-based; conditions: Salmonella enterica, 24 h, read-out: inhibition zones (IZ) S. typhi
[4] = test system: Streptococcus mutans (RCMB 0100172); assay: Inhibition zone, agar cup diffusion; conditions: RCMB0100172, 24 h, read-out: inhibition zones (IZ) S. mutans
[5] = test system: Shigella dysenteriae (RCMB 0100542); assay: Inhibition zone, agar cup diffusion; assay type: cell-based; conditions: RCMB0100542, 24 h, read-out: inhibition zones (IZ) S. dysenteriae
[6] = test system: Proteus vulgaris (RCMB 010085); assay: Inhibition zone, agar cup diffusion; conditions: RCMB010085, 24 h, read-out: inhibition zones (IZ) P. vulgaris
[7] = test system: Escherichia coli (RCMB 010052); assay: Inhibition zone, agar cup diffusion; conditions: RCMB010052, 24 h, read-out: inhibition zones (IZ) E.coli
[8] = test system: Staphylococcus epidermidis (RCMB 0100183); assay: Inhibition zone, agar cup diffusion; conditions: RCMB0100183, 24 h, read-out: inhibition zones (IZ) S. epidermidis
ovine COX-1 = target: T1, ovine COX-1 (Ovis aries, UniProt P05979); assay: In vitro COX-1 enzymatic assay (Cayman kit 560131); assay type: biochemical; conditions: Mean ± SEM of triplicate determinations
T1 construct: purchased Cayman Chemicals Inc. 560131
T1 sequence (P05979 25-600): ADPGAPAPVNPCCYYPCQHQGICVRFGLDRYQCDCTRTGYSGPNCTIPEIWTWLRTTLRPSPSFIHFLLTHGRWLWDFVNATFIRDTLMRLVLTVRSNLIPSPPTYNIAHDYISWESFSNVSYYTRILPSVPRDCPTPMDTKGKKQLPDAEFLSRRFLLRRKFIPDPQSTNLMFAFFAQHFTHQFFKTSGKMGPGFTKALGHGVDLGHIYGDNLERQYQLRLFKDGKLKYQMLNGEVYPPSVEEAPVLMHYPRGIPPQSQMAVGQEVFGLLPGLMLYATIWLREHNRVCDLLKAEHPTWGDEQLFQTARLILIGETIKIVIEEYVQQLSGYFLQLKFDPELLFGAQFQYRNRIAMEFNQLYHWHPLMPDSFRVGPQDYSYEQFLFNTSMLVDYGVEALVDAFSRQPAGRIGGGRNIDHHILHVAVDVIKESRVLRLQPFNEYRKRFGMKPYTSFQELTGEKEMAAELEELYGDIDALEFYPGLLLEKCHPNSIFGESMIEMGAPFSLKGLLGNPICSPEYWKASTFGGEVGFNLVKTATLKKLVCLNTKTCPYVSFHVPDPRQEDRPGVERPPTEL

[9] = test system: Bacillus subtilis (RCMB 0100162); assay: Inhibition zone, agar cup diffusion; conditions: RCMB0100162, 24 h, read-out: inhibition zones (IZ) B. subtillis
human recombinant COX-2 = target: T2, human recombinant COX-2 (Homo sapiens, UniProt P35354); assay: In vitro COX-2 enzymatic assay (Cayman kit 560131); conditions: for SI COX-1/COX-2: COX-2 selectivity index: COX-1 IC50/COX-2 IC50
T2 sequence (P35354 18-604): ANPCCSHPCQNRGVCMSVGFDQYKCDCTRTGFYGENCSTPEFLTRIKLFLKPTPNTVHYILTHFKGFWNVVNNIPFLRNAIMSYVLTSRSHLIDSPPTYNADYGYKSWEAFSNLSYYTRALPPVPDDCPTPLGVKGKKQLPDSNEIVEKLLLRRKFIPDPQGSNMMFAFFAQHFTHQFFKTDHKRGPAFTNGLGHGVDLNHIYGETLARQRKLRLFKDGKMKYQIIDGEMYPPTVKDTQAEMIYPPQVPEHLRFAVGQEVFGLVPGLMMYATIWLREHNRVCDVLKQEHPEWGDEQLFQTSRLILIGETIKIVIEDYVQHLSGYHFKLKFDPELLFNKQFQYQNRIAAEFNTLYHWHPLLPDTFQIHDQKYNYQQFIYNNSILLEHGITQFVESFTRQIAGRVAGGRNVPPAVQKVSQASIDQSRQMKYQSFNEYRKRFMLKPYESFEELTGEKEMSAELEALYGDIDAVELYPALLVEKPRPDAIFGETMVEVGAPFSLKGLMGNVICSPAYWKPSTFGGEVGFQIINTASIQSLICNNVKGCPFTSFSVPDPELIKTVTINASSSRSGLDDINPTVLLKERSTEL

E. coli C11 = conditions: for ED50, protective effect against bacteremic infection, Escherichia coli: mice, challenge dose 7.1x10^3 CFU/mouse ip, intragastric once a day for 7 days, survival
PGE2 = assay: Estimation of rat plasma PGE2; conditions: po 10 µmol/kg b.wt., 8 h after carrageenan; for % inhibition of PGE2-production: rat serum; for PGE2 serum conc.: rat, Mean ± SEM, n = 5
gastric layers = assay: Gastric ulcerogenic activity; conditions: fasted male Wistar rats, oral 30 µmol/kg twice at 4 h interval
S. aureus Smith = conditions: for ED50: Staphylococcus aureus, in Mus musculus, read-out: ED50 against S. aureus infection; for ED50, protective effect against bacteremic infection, Staphylococcus aureus: mice, challenge dose 9.5x10^6 CFU/mouse ip, intragastric once a day for 7 days, survival
[10] = test system: Pseudomonas aeruginosa (RCMB 0100243); assay: Inhibition zone, agar cup diffusion; conditions: RCMB0100243, 24 h, read-out: inhibition zones (IZ) P.aeruginosa
[11] = test system: Gram-positive and Gram-negative bacteria; assay: In vitro antibacterial screening, whole panel; assay type: cell-based; conditions: whole bacterial panel, result in words

Compound: O=C(c1cc(/N=N/c2ccc(S(=O)(=O)Nc3ncccn3)cc2)ccc1O)N1CCCCC1 [Compound 5j, 4-((4-Hydroxy-3-(piperidine-1-carbonyl)phenyl)diazenyl)-N-(pyrimidin-2-yl) benzenesulfonamide]
- zone of inhibition at 1000 µg/mL [1]: 28 mm
- ED50 [2]: 10.9 µmol/kg
- Thickness of edoema 0h [2]: 0.67 ± 0.02 mm
- percentage anti-inflammatory activity (AI%) 2h [2]: (15.79%)
- Thickness of edoema 2h [2]: 0.80 ± 0.01^c mm
- percentage anti-inflammatory activity (AI%) 4h [2]: (51.39%)
- Thickness of edoema 4h [2]: 0.70 ± 0.01^c mm
- percentage anti-inflammatory activity (AI%) 6h [2]: (70.73%)
- Thickness of edoema 6h [2]: 0.60 ± 0.01^c mm
- Thickness of edoema 8h [2]: 0.53 ± 0.01^c mm
- zone of inhibition at 1000 µg/mL [3]: 15 mm
- zone of inhibition at 1000 µg/mL [4]: 27 mm
- zone of inhibition at 1000 µg/mL [5]: 25 mm
- zone of inhibition at 1000 µg/mL [6]: 17 mm
- zone of inhibition at 1000 µg/mL [7]: 14 mm
- zone of inhibition at 1000 µg/mL [8]: 30 mm
- IC50 (ovine COX-1): 12.2 ± 0.06 µM
- zone of inhibition at 1000 µg/mL [9]: 19 mm
- IC50 (human recombinant COX-2): 0.05 ± 0.0005 µM
- SI COX-1/COX-2 (human recombinant COX-2): 239.2
- ED50 (E. coli C11; Escherichia coli, C11, in Mus musculus, read-out: ED50 against E.coli infection): 273 µmol/kg
- ED50, protective effect against bacteremic infection, Escherichia coli (E. coli C11): 272.7 µmol/kg/day
- % inhibition of PGE2-production (PGE2): 83.25%
- PGE2 serum conc. (PGE2): 221.236 ± 4.62 pg/mL
- Gastric ulcerogenic effect, histopathological examination of gastric layers (gastric layers): gastrointestinal safety profile
- ED50 (S. aureus Smith): 302 µmol/kg
- ED50, protective effect against bacteremic infection, Staphylococcus aureus (S. aureus Smith): 302.1 µmol/kg/day
- zone of inhibition at 1000 µg/mL [10]: 16 mm
- in vitro antibacterial activity [11]: weak in vitro antibacterial activity

Compound: O=C(c1cc(/N=N/c2ccc(S(=O)(=O)Nc3ncccn3)cc2)ccc1O)N1CCOCC1 [Compound 5n, 4-((4-Hydroxy-3-(morpholine-4-carbonyl)phenyl)diazenyl)-N-(pyrimidin-2-yl) benzenesulfonamide]
- zone of inhibition at 1000 µg/mL [1]: 16 mm
- ED50 [2]: 14.4 µmol/kg
- Thickness of edoema 0h [2]: 0.66 ± 0.004 mm
- percentage anti-inflammatory activity (AI%) 2h [2]: (-8.42%)
- Thickness of edoema 2h [2]: 1.03 ± 0.03 mm
- percentage anti-inflammatory activity (AI%) 4h [2]: (10.42%)
- Thickness of edoema 4h [2]: 1.29 ± 0.01 mm
- percentage anti-inflammatory activity (AI%) 6h [2]: (51.71%)
- Thickness of edoema 6h [2]: 0.99 ± 0.05 mm
- Thickness of edoema 8h [2]: 0.90 ± 0.01 mm
- zone of inhibition at 1000 µg/mL [3]: 14 mm
- zone of inhibition at 1000 µg/mL [4]: 28 mm
- zone of inhibition at 1000 µg/mL [5]: 24 mm
- zone of inhibition at 1000 µg/mL [6]: 18 mm
- zone of inhibition at 1000 µg/mL [7]: 17 mm
- zone of inhibition at 1000 µg/mL [8]: 33 mm
- IC50 (ovine COX-1): 10.6 ± 0.08 µM
- zone of inhibition at 1000 µg/mL [9]: 17 mm
- IC50 (human recombinant COX-2): 0.07 ± 0.0005 µM
- SI COX-1/COX-2 (human recombinant COX-2): 153.6
- ED50, protective effect against bacteremic infection, Escherichia coli (E. coli C11): 367.1 µmol/kg/day
- % inhibition of PGE2-production (PGE2): 55.18%
- PGE2 serum conc. (PGE2): 591.842 ± 5.96 pg/mL
- Gastric ulcerogenic effect, histopathological examination of gastric layers (gastric layers): gastrointestinal safety profile
- ED50 (S. aureus Smith): 353 to 413 µmol/kg
- ED50, protective effect against bacteremic infection, Staphylococcus aureus (S. aureus Smith): 397.6 µmol/kg/day
- zone of inhibition at 1000 µg/mL [10]: 14 mm
- in vitro antibacterial activity [11]: weak in vitro antibacterial activity

Compound: Cc1ccnc(NS(=O)(=O)c2ccc(/N=N/c3ccc(O)c(C(=O)N4CCOCC4)c3)cc2)n1 [Compound 5o, 4-((4-Hydroxy-3-(morpholine-4-carbonyl)phenyl)diazenyl)-N-(4-methylpyrimidin-2-yl) benzenesulfonamide]
- zone of inhibition at 1000 µg/mL [1]: 21 mm
- ED50 [2]: 13.3 µmol/kg
- Thickness of edoema 0h [2]: 0.65 ± 0.004 mm
- percentage anti-inflammatory activity (AI%) 2h [2]: (6.32%)
- Thickness of edoema 2h [2]: 0.89 ± 0.01^c mm
- percentage anti-inflammatory activity (AI%) 4h [2]: (43.06%)
- Thickness of edoema 4h [2]: 0.82 ± 0.02^c mm
- percentage anti-inflammatory activity (AI%) 6h [2]: (63.41%)
- Thickness of edoema 6h [2]: 0.75 ± 0.02^c mm
- Thickness of edoema 8h [2]: 0.64 ± 0.02^c mm
- zone of inhibition at 1000 µg/mL [3]: 18 mm
- zone of inhibition at 1000 µg/mL [4]: 27 mm
- zone of inhibition at 1000 µg/mL [5]: 23 mm
- zone of inhibition at 1000 µg/mL [6]: 19 mm
- zone of inhibition at 1000 µg/mL [7]: 16 mm
- zone of inhibition at 1000 µg/mL [8]: 35 mm
- IC50 (ovine COX-1): 12.9 ± 0.05 µM
- zone of inhibition at 1000 µg/mL [9]: 20 mm
- IC50 (human recombinant COX-2): 0.06 ± 0.0008 µM
- SI COX-1/COX-2 (human recombinant COX-2): 211.5
- ED50, protective effect against bacteremic infection, Escherichia coli (E. coli C11): 306.4 µmol/kg/day
- % inhibition of PGE2-production (PGE2): 72.92%
- PGE2 serum conc. (PGE2): 357.636 ± 7.48 pg/mL
- Gastric ulcerogenic effect, histopathological examination of gastric layers (gastric layers): erosion in the gastric layers
- ED50 (S. aureus Smith): 353 to 413 µmol/kg
- ED50, protective effect against bacteremic infection, Staphylococcus aureus (S. aureus Smith): 352.7 µmol/kg/day
- zone of inhibition at 1000 µg/mL [10]: 18 mm
- in vitro antibacterial activity [11]: weak in vitro antibacterial activity
